Data taken from article PMC10315697, “Evaluation of ^134Ce/^134La as a PET Imaging Theranostic Pair for ^225Ac α-Radiotherapeutics” (Journal of Nuclear Medicine, 2023).

Assays:
[1] = parameters: method as in PMID 34190542; details: for nonradioactive cerium ref 14; cited from earlier work
[2] = Ex vivo biodistribution of free and chelated ^134Ce/^225Ac in healthy mice; details: healthy wild-type C57BL/6 mice, tail vein injection, 1 h for ^134Ce

| Compound | stability (KLnL) [1] | bone uptake [2] | liver uptake [2] | blood uptake [2] | kidney uptake [2] |
| --- | --- | --- | --- | --- | --- |
| O=C(O)c1cccc(CN2CCOCCOCCN(Cc3cccc(C(=O)O)n3)CCOCCOCC2)n1 [MACROPA] | 15.1 |  |  |  |  |
| [Cl][134Ce]([Cl])[Cl] [^134CeCl3] |  | 15.54 ± 2.69 %ID/g | 71.5 ± 4.3 %ID/g |  |  |
| O=C([O-])CN1CCN(CC(=O)[O-])CCN(CC(=O)[O-])CCN(CC(=O)[O-])CC1.[225Ac+3] [^225Ac-DOTA] |  | 2.26 ± 0.56 %ID/g | 0.28 ± 0.008 %ID/g | 0.23 ± 0.02 %ID/g | 3.07 ± 0.99 %ID/g |
| [225Ac+3].[Cl-].[Cl-].[Cl-] [^225AcCl3] |  | 29.56 ± 2.40 %ID/g | 38.33 ± 6.75 %ID/g |  |  |
